pIC50: −log10 of the molar value. Converted amounts (≈) assume the structure as drawn.
Experiments:
E. coli NR698 = experiment: Bacteriostatic effect; type: cell-based; conditions: for MIC: Escherichia coli, NR698, 24 h, read-out: MIC, E. coli NR698; for MIC, E. coli NR698: 24 hr incubation at 37 °C, outer membrane leaky mutant
S. aureus 6538 = experiment: Bacteriostatic effect; type: cell-based; conditions: for MIC: Staphylococcus aureus, 6538, 24 h, read-out: MIC, S. aureus 6538; for MIC, S. aureus 6538: 24 hr incubation at 37 °C
EcSecAN68 = EcSecAN68 (Escherichia coli, UniProt P10408); experiment: biochemical; design: species or system E. coli
Sequence of EcSecAN68 (P10408 1-610): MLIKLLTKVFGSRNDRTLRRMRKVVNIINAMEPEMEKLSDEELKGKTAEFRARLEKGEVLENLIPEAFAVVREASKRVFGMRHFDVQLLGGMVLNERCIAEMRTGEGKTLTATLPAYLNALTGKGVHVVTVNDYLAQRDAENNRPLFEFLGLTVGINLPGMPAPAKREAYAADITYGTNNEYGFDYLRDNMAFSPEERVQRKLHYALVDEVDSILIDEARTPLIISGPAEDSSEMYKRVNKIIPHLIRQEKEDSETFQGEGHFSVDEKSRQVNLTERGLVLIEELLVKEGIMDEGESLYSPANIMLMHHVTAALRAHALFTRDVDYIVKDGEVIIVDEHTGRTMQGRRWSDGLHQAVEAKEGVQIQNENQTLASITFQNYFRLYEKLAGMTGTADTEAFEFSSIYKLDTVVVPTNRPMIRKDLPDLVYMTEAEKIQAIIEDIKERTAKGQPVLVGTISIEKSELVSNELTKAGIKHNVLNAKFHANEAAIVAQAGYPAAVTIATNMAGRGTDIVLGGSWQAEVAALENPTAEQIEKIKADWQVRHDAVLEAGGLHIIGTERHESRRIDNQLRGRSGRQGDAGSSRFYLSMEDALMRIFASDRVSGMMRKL

S. aureus Mu50 = experiment: Bacteriostatic effect; type: cell-based

Compound	MIC (E. coli NR698) [µM]	MIC (S. aureus 6538) [µM]	pIC50 (EcSecAN68)	Fold by which 7b and 12a are more effective than the antibiotic (MIC) (S. aureus Mu50; S. aureus Mu50, label = antibiotic compared) [fold]	MIC (S. aureus Mu50; Staphylococcus aureus, MRSA, read-out: MIC, S. aureus Mu50) [µg/mL]	MIC, E. coli NR698 (E. coli NR698) [µM]	MIC, S. aureus 6538 (S. aureus 6538) [µM]
CSc1nc(Cl)cc(Sc2nnc(-c3cccc(F)c3)[nH]2)n1 [Compound 7f, 4-Chloro-6-((5-(3-fluorophenyl)-4H-1,2,4-triazol-3-yl)thio)-2-(methylthio) pyrimidine]	200 (≈ 70.8 µg/mL)	175 (≈ 61.9 µg/mL)	> 4.30	–	–	–	–
FC(F)(F)c1cc(-c2n[nH]c(Sc3nc(Cl)cc(Cl)n3)n2)cc(C(F)(F)F)c1 [Compound 16a, 2-((3-(3,5-Bis(trifluoromethyl)phenyl)-1H-1,2,4-triazol-5-yl)thio)-4,6-dichloropyrimidine]	12.5 (≈ 5.75 µg/mL)	6.3 (≈ 2.9 µg/mL)	4.30	–	–	–	–
CSc1nc(Cl)cc(Sc2nnc(-c3ccc(C(F)(F)F)cc3)[nH]2)n1 [Compound 7i, 4-Chloro-2-(methylthio)-6-((5-(4-(trifluoromethyl)phenyl)-4H-1,2,4-triazol-3-yl)thio) pyrimidine]	25 (≈ 10.1 µg/mL)	14.6 (≈ 5.9 µg/mL)	> 4.30	–	–	–	–
CSc1nc(Cl)cc(Sc2nnc(-c3cc(C)cc(C)c3)[nH]2)n1 [Compound 7e, 4-Chloro-6-((5-(3,5-dimethylphenyl)-4H-1,2,4-triazol-3-yl)thio)-2-(methylthio) pyrimidine]	50 (≈ 18.2 µg/mL)	50 (≈ 18.2 µg/mL)	4.52	–	–	–	–
FC(F)(F)c1cc(-c2nnc(S)[nH]2)cc(C(F)(F)F)c1 [Compound 5a, 5-(3,5-Bis(trifluoromethyl)phenyl)-4H-1,2,4-triazole-3-thiol]	> 250	> 250	4.22	–	–	–	–
CC[C@H]1OC(=O)[C@H](C)[C@@H](O[C@H]2C[C@@](C)(OC)[C@@H](O)[C@H](C)O2)[C@H](C)[C@@H](O[C@@H]2O[C@H](C)C[C@H](N(C)C)[C@H]2O)[C@](C)(O)C[C@@H](C)C(=O)[C@H](C)[C@@H](O)[C@]1(C)O [erythromycin]	–	–	–	> 1600	1250 (≈ 1700 µM)	–	–
Fc1cc(F)cc(-c2nnc(Sc3cc(Cl)nc(Sc4ccccc4)n3)[nH]2)c1 [Compound 12f, 4-Chloro-6-((5-(3,5-difluorophenyl)-4H-1,2,4-triazol-3-yl)thio)-2-(phenylthio) pyrimidine]	31.3 (≈ 13.6 µg/mL)	20.8 (≈ 9.03 µg/mL)	> 4.30	–	–	–	–
N#Cc1c(-c2ccc(Br)cc2)nc(Sc2nc(Cl)cc(Cl)n2)[nH]c1=O [Compound 20a, 4-(4-Bromophenyl)-2-((4,6-dichloropyrimidin-2-yl)thio)-6-oxo-1,6-dihydropyrimidine-5-carbonitrile]	> 250	> 250	> 4.30	–	–	–	–
FC(F)(F)c1cc(-c2nnc(Sc3nc(Cl)cc(Cl)n3)o2)cc(C(F)(F)F)c1 [Compound 17, 2-(3,5-Bis(trifluoromethyl)phenyl)-5-((4,6-dichloropyrimidin-2-yl)thio)-1,3,4-oxadiazole]	> 250	18.8 (≈ 8.67 µg/mL)	4.15	–	–	–	–
Fc1cccc(-c2nnc(Sc3nc(Cl)cc(Cl)n3)[nH]2)c1 [Compound 16d, 4,6-Dichloro-2-((5-(3-fluorophenyl)-4H-1,2,4-triazol-3-yl)thio) pyrimidine]	200 (≈ 68.4 µg/mL)	≥ 100	< 4.00	–	–	–	–
FC(F)(F)c1cccc(-c2nnc(Sc3cc(Cl)nc(Sc4ccccc4)n3)[nH]2)c1 [Compound 12g, 4-Chloro-2-(phenylthio)-6-((5-(3-(trifluoromethyl)phenyl)-4H-1,2,4-triazol-3-yl)thio) pyrimidine]	18.8 (≈ 8.76 µg/mL)	18.8 (≈ 8.76 µg/mL)	> 4.30	–	–	–	–
Cc1cc(C)cc(-c2nnc(Sc3cc(Cl)ncn3)[nH]2)c1 [Compound 9a, 4-Chloro-6-((5-(3,5-dimethylphenyl)-4H-1,2,4-triazol-3-yl)thio) pyrimidine]	> 250	> 250	< 3.70	–	–	–	–
CSc1nc(Cl)c2c(n1)Sc1nnc(-c3cc(C(F)(F)F)cc(C(F)(F)F)c3)n1NC2 [Compound 25]	> 250	> 100	4.34	–	–	–	–
CSc1nc(Cl)cc(Sc2nnc(-c3cccc(C(F)(F)F)c3)[nH]2)n1 [Compound 7j, 4-Chloro-2-(methylthio)-6-((5-(3-(trifluoromethyl)phenyl)-4H-1,2,4-triazol-3-yl)thio) pyrimidine]	> 250	> 250	> 4.30	–	–	–	–
FC(F)(F)c1cc(-c2nnc(Sc3cc(Cl)nc(Oc4ccccc4)n3)[nH]2)cc(C(F)(F)F)c1 [Compound 12c, 4-((5-(3,5-Bis(trifluoromethyl)phenyl)-4H-1,2,4-triazol-3-yl)thio)-6-chloro-2-phenoxy-pyrimidine]	8.3 (≈ 4.3 µg/mL)	3.1 (≈ 1.61 µg/mL)	5.05	–	–	–	–
FC(F)(F)c1cc(-c2nnc(Sc3nc(Cl)cc(NCc4ccccc4)n3)[nH]2)cc(C(F)(F)F)c1 [Compound 16e, N-Benzyl-2-((3-(3,5-bis(trifluoromethyl)phenyl)-4H-1,2,4-triazol-5-yl)thio)-6-chloro-pyrimidin-4-amine]	≥ 250	50 (≈ 26.5 µg/mL)	< 4.30	–	–	–	–
COc1cc(OC)cc(-c2nnc(Sc3cc(Cl)nc(SC)n3)[nH]2)c1 [Compound 7h, 4-Chloro-6-((5-(3,5-dimethoxyphenyl)-4H-1,2,4-triazol-3-yl)thio)-2-(methylthio) pyrimidine]	100 (≈ 39.6 µg/mL)	> 250	> 4.30	–	–	–	–

Compound	MIC (E. coli NR698) [µM]	MIC (S. aureus 6538) [µM]	pIC50 (EcSecAN68)	Fold by which 7b and 12a are more effective than the antibiotic (MIC) (S. aureus Mu50; S. aureus Mu50, label = antibiotic compared) [fold]	MIC (S. aureus Mu50; Staphylococcus aureus, MRSA, read-out: MIC, S. aureus Mu50) [µg/mL]	MIC, E. coli NR698 (E. coli NR698) [µM]	MIC, S. aureus 6538 (S. aureus 6538) [µM]
CSc1nc(Cl)c2c(n1)Sc1nnc(-c3cc(C(F)(F)F)cc(C(F)(F)F)c3)n1N=C2 [Compound 24]	12.5 (≈ 6.21 µg/mL)	3.1 (≈ 1.54 µg/mL)	> 4.60	–	–	–	–
FC(F)(F)c1cc(-c2n[nH]c(Oc3nc(Cl)cc(Oc4nnc(-c5cc(C(F)(F)F)cc(C(F)(F)F)c5)[nH]4)n3)n2)cc(C(F)(F)F)c1 [Compound 18]	> 250	250 (≈ 176 µg/mL)	> 4.30	–	–	–	–
COc1cc(O)cc(-c2nnc(Sc3cc(Cl)nc(Sc4ccccc4)n3)[nH]2)c1 [Compound 12j, 3-(5-((6-Chloro-2-(phenylthio)pyrimidin-4-yl)thio)-4H-1,2,4-triazol-3-yl)-5-methoxy phenol]	> 250	≥ 250	> 4.30	–	–	–	–
CCc1ccc(-c2nc(Sc3nc(Cl)cc(Cl)n3)[nH]c(=O)c2C#N)cc1 [Compound 20b, 2-((4,6-Dichloropyrimidin-2-yl)thio)-4-(4-ethylphenyl)-6-oxo-1,6-dihydropyrimidine-5-carbonitrile]	> 250	> 250	> 4.30	–	–	–	–
CSc1nccc(Sc2nnc(-c3cc(C)cc(C)c3)[nH]2)n1 [Compound 7d, 4-((5-(3,5-Dimethylphenyl)-4H-1,2,4-triazol-3-yl)thio)-2-(methylthio) pyrimidine]	> 250	> 250	4.19	–	–	–	–
CSc1nccc(Sc2nnc(-c3cc(C(F)(F)F)cc(C(F)(F)F)c3)[nH]2)n1 [Compound 7c, 4-((5-(3,5-Bis(trifluoromethyl)phenyl)-4H-1,2,4-triazol-3-yl)thio)-2-(methylthio) pyrimidine]	50 (≈ 21.9 µg/mL)	62.5 (≈ 27.3 µg/mL)	4.02	–	–	–	–
CSc1nc(C)cc(Sc2nnc(-c3cc(C(F)(F)F)cc(C(F)(F)F)c3)[nH]2)n1 [Compound 7a, 4-((5-(3,5-Bis(trifluoromethyl)phenyl)-4H-1,2,4-triazol-3-yl)thio)-6-methyl-2-(methylthio) pyrimidine]	33.3 (≈ 15 µg/mL)	18.8 (≈ 8.49 µg/mL)	–	–	–	–	–
COc1cc(OC)cc(-c2nnc(Sc3cc(Cl)nc(Sc4ccccc4)n3)[nH]2)c1 [Compound 12h, 4-Chloro-6-((5-(3,5-dimethoxyphenyl)-4H-1,2,4-triazol-3-yl)thio)-2-(phenylthio) pyrimidine]	> 250	≥ 100	> 4.30	–	–	–	–
Cc1cc(C)cc(-c2n[nH]c(Sc3nc(Cl)cc(Cl)n3)n2)c1 [Compound 16b, 4,6-Dichloro-2-((3-(3,5-dimethylphenyl)-1H-1,2,4-triazol-5-yl)thio) pyrimidine]	> 164	100 (≈ 35.2 µg/mL)	–	–	–	–	–
CSC1=NC2=C(CN1)CNn1c(nnc1-c1cc(C(F)(F)F)cc(C(F)(F)F)c1)S2 [Compound 26]	> 100	> 100	4.30	–	–	–	–
OCCCCSc1nc(Cl)cc(Sc2nnc(-c3cc(C(F)(F)F)cc(C(F)(F)F)c3)[nH]2)n1 [Compound 12e, 4-((4-((5-(3,5-Bis(trifluoromethyl)phenyl)-4H-1,2,4-triazol-3-yl)thio)-6-chloropyri-midin-2-yl)thio) butan-1-ol]	–	–	–	–	–	43.8 (≈ 23.2 µg/mL)	25.0 (≈ 13.2 µg/mL)
Cc1cc(C)cc(-c2nnc(Sc3cc(Cl)nc(Sc4ccccc4)n3)[nH]2)c1 [Compound 12b, 4-Chloro-6-((5-(3,5-dimethylphenyl)-4H-1,2,4-triazol-3-yl)thio)-2-(phenylthio) pyri-midine]	–	–	–	–	–	>250	12.5 (≈ 5.32 µg/mL)
FC(F)(F)c1cc(-c2nnc(Sc3cc(Cl)ncn3)[nH]2)cc(C(F)(F)F)c1 [Compound 9b, 4-((5-(3,5-Bis(trifluoromethyl)phenyl)-4H-1,2,4-triazol-3-yl)thio)-6-chloropyrimidine]	35.4 (≈ 15.1 µg/mL)	18.8 (≈ 8 µg/mL)	4.00	–	–	–	–
CSc1nc(Cl)cc(Sc2nnc(-c3cc(C(F)(F)F)cc(C(F)(F)F)c3)o2)n1 [Compound 15, 2-(3,5-Bis(trifluoromethyl)phenyl)-5-((6-chloro-2-(methylthio)pyrimidin-4-yl)thio)-1,3,4-oxadiazole]	> 100	> 250	3.70	–	–	–	–
CSc1nc(Cl)cc(Sc2nnc(-c3cc(F)cc(F)c3)[nH]2)n1 [Compound 7g, 4-Chloro-6-((5-(3,5-difluorophenyl)-4H-1,2,4-triazol-3-yl)thio)-2-(methylthio) pyrimidine]	50 (≈ 18.6 µg/mL)	41.6 (≈ 15.5 µg/mL)	< 4.00	–	–	–	–
FC(F)(F)c1ccc(-c2nnc(Sc3cc(Cl)nc(Sc4ccccc4)n3)[nH]2)cc1 [Compound 12i, 4-Chloro-2-(phenylthio)-6-((5-(4-(trifluoromethyl)phenyl)-4H-1,2,4-triazol-3-yl)thio) pyrimidine]	12.5 (≈ 5.82 µg/mL)	8.3 (≈ 3.87 µg/mL)	> 4.30	–	–	–	–
